Our source for the relative permittivity values is the NIST ThermoML archive (doi:10.1016/j.jct.2012.02.011).

“And” between values parts separate entries of the source, which are not always exact repeats. Equal entries are not always repeated. ± gives the expanded uncertainty stated by the source.

Data set [1] in a line: relative permittivity at various frequencies (dimensionless). The conditions noted are these: 101.3 kPa, Liquid, Frequency=3 MHz.
Data set [2] can be described thus: relative permittivity at various frequencies (dimensionless); xn = mol fraction of the nth substance listed. The conditions noted are these: 101.33 kPa, Liquid, Frequency=3 MHz, OH-301.

For the molecule `O=[N+]([O-])c1ccccc1` [nitrobenzene], the relative permittivity in data set [1] (293.15 K, OH-301 Stainless Steel Cell) worked out at 35.91 ± 0.06; in data set [1] (298.15 K, OH-301 Stainless Steel Cell), 34.78 ± 0.04; in data set [1] (303.15 K, OH-301 Stainless Steel Cell), 33.84 ± 0.05; in data set [1] (308.15 K, OH-301 Stainless Steel Cell) it was 33.13 ± 0.05; in data set [1] (313.15 K, OH-301 Stainless Steel Cell), 32.66 ± 0.04.
On to `O=[N+]([O-])c1ccccc1` [nitrobenzene] + CCCCOCCO, for which the relative permittivity is listed as 35.91 ± 0.06 in data set [2] (293.15 K, x1 = 1); 34.78 ± 0.06 in data set [2] (298.15 K, x1 = 1); 33.84 ± 0.05 in data set [2] (303.15 K, x1 = 1); 33.13 ± 0.05 in data set [2] (308.15 K, x1 = 1); 32.66 ± 0.04 in data set [2] (313.15 K, x1 = 1).
As for `CCOCCO` [2-ethoxyethan-1-ol], the relative permittivity in data set [1] (293.15 K, OH-301) is on record as 14.25 ± 0.04; in data set [1] (298.15 K, OH-301), 14.03 ± 0.04; in data set [1] (303.15 K, OH-301), 13.76 ± 0.04; in data set [1] (308.15 K, OH-301) it was 13.44 ± 0.04; in data set [1] (313.15 K, OH-301), 13.07 ± 0.04.
Consider `COCCO` [2-methoxyethan-1-ol] + O=[N+]([O-])c1ccccc1, for which the relative permittivity in data set [2] (293.15 K, x2 = 0) was 17.38 ± 0.04; in data set [2] (298.15 K, x2 = 0), 16.96 ± 0.04; in data set [2] (303.15 K, x2 = 0), 16.56 ± 0.04; in data set [2] (308.15 K, x2 = 0), 16.16 ± 0.04; in data set [2] (313.15 K, x2 = 0), 15.77 ± 0.04.
Consider `O=[N+]([O-])c1ccccc1` [nitrobenzene] + CCOCCO, for which the relative permittivity in data set [2] (293.15 K, x1 = 1) came out at 35.91 ± 0.06; in data set [2] (298.15 K, x1 = 1) it was 34.78 ± 0.06; in data set [2] (303.15 K, x1 = 1) it was 33.84 ± 0.05; in data set [2] (308.15 K, x1 = 1), 33.13 ± 0.05; in data set [2] (313.15 K, x1 = 1), 32.66 ± 0.04.
Take `COCCO` [2-methoxyethan-1-ol]: the relative permittivity in data set [1] (293.15 K, OH-301) is 17.38 ± 0.04; in data set [1] (298.15 K, OH-301) it was 16.95 ± 0.04 and 16.96 ± 0.04; in data set [1] (303.15 K, OH-301), 16.56 ± 0.04; in data set [1] (308.15 K, OH-301), 16.16 ± 0.04; in data set [1] (313.15 K, OH-301), 15.77 ± 0.04.
Turning to `CCCCOCCO` [2-butoxyethan-1-ol], the relative permittivity in data set [1] (293.15 K, OH-301) is 9.78 ± 0.04; in data set [1] (298.15 K, OH-301) it was 9.35 ± 0.04; in data set [1] (303.15 K, OH-301), 8.88 ± 0.04; in data set [1] (308.15 K, OH-301) it was 8.39 ± 0.04; in data set [1] (313.15 K, OH-301), 7.91 ± 0.04.
Turning to `O=[N+]([O-])c1ccccc1` [nitrobenzene] + CCCOCCO, the relative permittivity in data set [2] (293.15 K, x1 = 1) was found to be 35.91 ± 0.06; in data set [2] (298.15 K, x1 = 1), 34.78 ± 0.06; in data set [2] (303.15 K, x1 = 1) it was 33.84 ± 0.05; in data set [2] (308.15 K, x1 = 1), 33.13 ± 0.05; in data set [2] (313.15 K, x1 = 1), 32.66 ± 0.04.
For the molecule `CCCOCCO` [2-propoxyethanol], the relative permittivity in data set [1] (293.15 K, OH-301) came to 11.76 ± 0.04; in data set [1] (298.15 K, OH-301), 11.5 ± 0.04; in data set [1] (303.15 K, OH-301), 11.19 ± 0.04; in data set [1] (308.15 K, OH-301), 10.91 ± 0.04; in data set [1] (313.15 K, OH-301) it was 10.62 ± 0.04.
